From patent US7704995B2 (Exelixis, Inc., priority 2003, dated 2010) come the findings set out here.

As usually defined, the IC50 is the concentration at which inhibition is half-maximal.

The target of this assay is T1, Chk1 (Homo sapiens, UniProt O14757).
T1 construct: purchased Upstate Biotechnology
T1 sequence (O14757 1-476): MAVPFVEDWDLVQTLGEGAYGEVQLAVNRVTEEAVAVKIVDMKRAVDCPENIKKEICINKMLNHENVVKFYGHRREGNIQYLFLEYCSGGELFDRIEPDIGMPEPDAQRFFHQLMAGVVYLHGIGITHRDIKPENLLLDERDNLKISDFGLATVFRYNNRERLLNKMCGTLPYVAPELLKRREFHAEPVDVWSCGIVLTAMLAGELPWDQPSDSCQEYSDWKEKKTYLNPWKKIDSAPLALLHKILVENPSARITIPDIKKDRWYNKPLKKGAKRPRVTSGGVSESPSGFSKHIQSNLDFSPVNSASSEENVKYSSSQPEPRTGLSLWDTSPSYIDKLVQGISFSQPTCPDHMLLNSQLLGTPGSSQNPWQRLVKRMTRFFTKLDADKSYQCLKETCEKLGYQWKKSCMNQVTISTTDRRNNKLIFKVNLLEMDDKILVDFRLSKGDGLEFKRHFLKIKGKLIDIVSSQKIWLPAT
Put plainly: Chk1 kinase assay: incorporation of γ-33P ATP into immobilized myelin basic protein. It counts as biochemical. The note with it: read-out: Chk1 IC50. In short, it runs like this:
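Immobilized-MBP radiometric kinase assay, room temperature for 1 h; ATP 10 μM (Chk1, 10 nM enzyme) or 30 μM (Chk2, 20 nM enzyme) with 33P tracer. Values are IC50s, with Ki derived from them.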

Where [1] appears, read: Table 11, Chk1 only, class symbols A-D.

Molecules are shown by their SMILES. Like-named read-outs stand apart in the source and are kept apart here. Bounds are passed on as bounds.

In the case of `Cc1nc(-c2nc(-c3cccc(C(=O)N[C@H]4CCc5ccccc54)c3)cnc2N)nn1-c1ccncc1` [Example 793, 3-[5-amino-6-(5-methyl-1-pyridin-4-yl-1H-1,2,4-triazol-3-yl)pyrazin-2-yl]-N-[(1S)-2,3-dihydro-1H-inden-1-yl]benzamide], under “Table 11, Chk1 only”, the IC50 lay in the range of 1000 to 10000 nM.
Turning to `CC(C)(C)OC(=O)N1CCC[C@@H](NC(=O)c2nc(-c3cccc(C(=O)N[C@H]4CCc5ccccc54)c3)cnc2N)C1` [Example 794, 1,1-dimethylethyl (3R)-3-({[3-amino-6-(3-{[(1S)-2,3-dihydro-1H-inden-1-ylamino]carbonyl}phenyl)pyrazin-2-yl]carbonyl}amino)piperidine-1-carboxylate], the IC50 (Table 11, Chk1 only) lay within 1000 to 10000 nM.
With `CC(C)(C)OC(=O)N1CCC[C@@H](NC(=O)c2nc(-c3cccc(C(=O)N[C@@H]4c5ccccc5C[C@@H]4O)c3)cnc2N)C1` [Example 795, 1,1-dimethylethyl (3R)-3-[({3-amino-6-[3-({[(1R,2S)-2-hydroxy-2,3-dihydro-1H-inden-1-yl]amino}carbonyl)phenyl]pyrazin-2-yl}carbonyl)amino]piperidine-1-carboxylate], the IC50 (Table 11, Chk1 only) was at least 10000 nM.
Consider `CNC(=O)c1nc(-c2cc(C(=O)N[C@@H]3CCNC3)cc(C(=O)N[C@@H]3CCc4ccccc43)c2)cnc1N` [Example 797, 5-{5-amino-6-[(methylamino)carbonyl]pyrazin-2-yl}-N-[(1R)-2,3-dihydro-1H-inden-1-yl]-N′-[(3R)-pyrrolidin-3-yl]benzene-1,3-dicarboxamide], for which the IC50 (Table 11, Chk1 only) lay within 50 to 1000 nM.
As to `Nc1cc(-c2n[nH]c(-c3nc(-c4cccc(CO)c4)cnc3N)n2)ccn1` [Example 798, (3-{5-amino-6-[3-(2-aminopyridin-4-yl)-1H-1,2,4-triazol-5-yl]pyrazin-2-yl}phenyl)methanol], the IC50 (Table 11, Chk1 only) lay in the range of 50 to 1000 nM.
On the same count and under the same terms, with `Cc1nc(-c2nc(-c3cccc(C(=O)N[C@H]4CCc5ccccc54)c3)cnc2N)nn1C` [Example 799, 3-[5-amino-6-(1,5-dimethyl-1H-1,2,4-triazol-3-yl)pyrazin-2-yl]-N-[(1S)-2,3-dihydro-1H-inden-1-yl]benzamide] the figure was at least 10000 nM; with `CC(C)(C)OC(=O)N1CC[C@H](NC(=O)c2nc(-c3cccc(C(=O)NC(C)(C)c4ccccc4)c3)cnc2N)C1` [Example 800, 1,1-dimethylethyl (3S)-3-({[3-amino-6-(3-{[(1-methyl-1-phenylethyl)amino]carbonyl}phenyl)pyrazin-2-yl]carbonyl}amino)pyrrolidine-1-carboxylate], at least 10000 nM; with `CC(C)(NC(=O)c1cccc(-c2cnc(N)c(C(=O)N[C@H]3CCNC3)n2)c1)c1ccccc1` [Example 801, 3-amino-6-(3-{[(1-methyl-1-phenylethyl)amino]carbonyl}phenyl)-N-[(3S)-pyrrolidin-3-yl]pyrazine-2-carboxamide], 50 to 1000 nM.
As for `NC(=O)c1nc(-c2cccc(S(=O)(=O)N[C@H]3CCc4ccccc43)c2)cnc1N` [Example 802, 3-amino-6-(3-{[(1S)-2,3-dihydro-1H-inden-1-ylamino]sulfonyl}phenyl)pyrazine-2-carboxamide], the IC50 (Table 11, Chk1 only) was 1000 to 10000 nM.
Still for that read-out and setting: with `Nc1ncc(-c2cccc(S(=O)(=O)N[C@H]3CCc4ccccc43)c2)nc1C(=O)NC1CCCNC1` (stereo partly drawn) [Example 803, 3-amino-6-(3-{[(1S)-2,3-dihydro-1H-inden-1-ylamino]sulfonyl}phenyl)-N-piperidin-3-ylpyrazine-2-carboxamide] the figure was 50 to 1000 nM.
On to `CN1CC[C@H](NC(=O)c2nc(-c3cccc(C(=O)N[C@H]4CCc5ccccc54)c3)cnc2N)C1` [Example 804, 3-amino-6-(3-{[(1S)-2,3-dihydro-1H-inden-1-ylamino]carbonyl}phenyl)-N-[(3S)-1-methylpyrrolidin-3-yl]pyrazine-2-carboxamide], for which, under “Table 11, Chk1 only”, the IC50 is 50 to 1000 nM.
With `CN1CC[C@H](NC(=O)c2nc(-c3cccc(C(=O)N[C@@H]4c5ccccc5C[C@@H]4O)c3)cnc2N)C1` [Example 805, 3-amino-6-[3-({[(1R,2S)-2-hydroxy-2,3-dihydro-1H-inden-1-yl]amino}carbonyl)phenyl]-N-[(3S)-1-methylpyrrolidin-3-yl]pyrazine-2-carboxamide], under setting [1], the IC50 fell in the range of 50 to 1000 nM.
With `Nc1ncc(-c2cccc(CN[C@@H]3c4ccccc4C[C@@H]3O)c2)nc1C(=O)N[C@H]1CCNC1` [Example 806, 3-amino-6-[3-({[(1R,2S)-2-hydroxy-2,3-dihydro-1H-inden-1-yl]amino}methyl)phenyl]-N-[(3S)-pyrrolidin-3-yl]pyrazine-2-carboxamide], the concentration for half-maximal inhibition (IC50) under setting [1] is under 50 nM.
In the case of `Nc1ncc(-c2cccc(C(=O)N[C@@H]3c4ccccc4C[C@@H]3O)c2)nc1C(=O)N[C@H]1CCCNC1` [Example 807, 3-amino-6-[3-({[(1R,2S)-2-hydroxy-2,3-dihydro-1H-inden-1-yl]amino}carbonyl)phenyl]-N-[(3S)-piperidin-3-yl]pyrazine-2-carboxamide], under setting [1], the IC50 was under 50 nM.
Turning to `Nc1ncc(-c2cccc(CN[C@H]3CCCc4ccccc43)c2)nc1C(=O)N[C@H]1CCNC1` [Example 808, 3-amino-N-[(3S)pyrrolidin-3-yl]-6-(3-{[(1S)-1,2,3,4-tetrahydronaphthalen-1-ylamino]methyl}phenyl)pyrazine-2-carboxamide], under setting [1], the IC50 was under 50 nM.
With `Nc1ncc(-c2cccc(NC(=O)Cc3ccc(Cl)cc3Cl)c2)nc1-c1nnc([C@H]2CCCNC2)[nH]1` [Example 809, N-[3-(5-amino-6-{5-[(3S)-piperidin-3-yl]-4H-1,2,4-triazol-3-yl}pyrazin-2-yl)phenyl]-2-(2,4-dichlorophenyl)acetamide], under setting [1], the IC50 is under 50 nM.
Same read-out and setting: the figure for `CC(C)(C)OC(=O)N1CC[C@H](NC(=O)c2nc(-c3cccc(S(=O)(=O)N[C@@H]4CCc5ccccc54)c3)cnc2N)C1` [Example 810, 1,1-dimethylethyl (3S)-3-({[3-amino-6-(3-{[(1R)-2,3-dihydro-1H-inden-1-ylamino]sulfonyl}phenyl)pyrazin-2-yl]carbonyl}amino)pyrrolidine-1-carboxylate] is at least 10000 nM; for `Nc1ncc(-c2cccc(O)c2)nc1C(=O)N[C@H]1CCNC1` [Example 811, 3-amino-6-(3-hydroxyphenyl)-N-[(3S)-pyrrolidin-3-yl]pyrazine-2-carboxamide] it is 50 to 1000 nM; for `Nc1ncc(-c2cccc(S(=O)(=O)N[C@@H]3CCc4ccccc43)c2)nc1C(=O)N[C@H]1CCNC1` [Example 812, 3-amino-6-(3-{[(1R)-2,3-dihydro-1H-inden-1-ylamino]sulfonyl}phenyl)-N-[(3S)-pyrrolidin-3-yl]pyrazine-2-carboxamide] it is 50 to 1000 nM.
Consider `Nc1ncc(-c2cccc(C(=O)N[C@H]3CCc4ccccc43)c2)nc1-c1ncn(-c2ccncc2)n1` [Example 813, 3-[5-amino-6-(1-pyridin-4-yl-1H-1,2,4-triazol-3-yl)pyrazin-2-yl]-N-[(1S)-2,3-dihydro-1H-inden-1-yl]benzamide], for which, under setting [1], the IC50 was in the range of 1000 to 10000 nM.
Still for that read-out and setting: with `Nc1ncc(-c2cccc(C(=O)NCc3cc(F)c(F)c(F)c3)c2)nc1C(=O)N[C@H]1CCNC1` [Example 814, 3-amino-N-[(3S)-pyrrolidin-3-yl]-6-[3-({[(3,4,5-trifluorophenyl)methyl]amino}carbonyl)phenyl]pyrazine-2-carboxamide] the figure was under 50 nM.
